Data published in ChEMBL document CHEMBL1667778, “Naphthalene/quinoline amides and sulfonylureas as potent and selective antagonists of the EP4 receptor” (Bioorg Med Chem Lett, 2011).

Legend:
[1] = Bioavailability in Beagle dog at 1 mg/kg, iv and 4 mg/kg, po; assay type: ADME, organism-based, Canis lupus familiaris; conditions: in vivo
[2] = Elimination half life in Sprague-Dawley rat at 5 mg/kg, iv and 20 mg/kg, po; assay type: ADME, organism-based; conditions: in vivo
Hepatocyte [3] = assay: Metabolic stability in rat hepatocytes; assay type: ADME, cell-based
[4] = Elimination half life in Beagle dog at 1 mg/kg, iv and 4 mg/kg, po; assay type: ADME, organism-based, Canis lupus familiaris; conditions: in vivo
[5] = AUC (0 to 24 hrs) in Beagle dog at 4 mg/kg, po; assay type: ADME, organism-based, Canis lupus familiaris; design: time < 24 hr, dose 4 mg/kg, route oral; conditions: plasma
[6] = Bioavailability in Sprague-Dawley rat at 5 mg/kg, iv and 20 mg/kg, po; assay type: ADME, organism-based; conditions: in vivo
[7] = Metabolic stability in rat liver microsome; assay type: ADME; conditions: microsomes
[8] = AUC (0 to 24 hrs) in Sprague-Dawley rat at 20 mg/kg, po; assay type: ADME, organism-based; design: time < 24 hr, dose 20 mg/kg, route oral; conditions: plasma
[9] = Clearance in Sprague-Dawley rat at 5 mg/kg, iv and 20 mg/kg, po; assay type: ADME, organism-based; conditions: in vivo
Liver = assay: Drug level in Sprague-Dawley rat liver at 150 uCi/kg, po after 24 hrs; assay type: ADME, organism-based; conditions: in vivo
[10] = Metabolic stability in human liver microsome; assay type: ADME; conditions: microsomes
Plasma = assay: Drug level in Sprague-Dawley rat plasma at 150 uCi/kg, po after 24 hrs; assay type: ADME, organism-based; conditions: in vivo
Hepatocyte [11] = assay: Metabolic stability in human hepatocytes; assay type: ADME, cell-based
[12] = Clearance in Beagle dog at 1 mg/kg, iv and 4 mg/kg, po; assay type: ADME, organism-based, Canis lupus familiaris; conditions: in vivo

bioavailability [1]: 100%
half-life [2]: 6.6 h
Stability (Hepatocyte [3]): 91%
half-life [4]: 4.3 h
AUC(0-t) at 24 h [5]: 101 µM·h
bioavailability [6]: 84%
Stability [7]: 97%
AUC(0-t) at 24 h [8]: 37.4 µM·h
clearance [9]: 11 mL/min/kg
Drug uptake (Liver): < 10 pmol/mg
Stability [10]: 90%
Drug uptake (Plasma): < 10 pmol/mg
Stability (Hepatocyte [11]): 96%
clearance [12]: 1.2 mL/min/kg
Compound: CCOc1c2c(c(OCC)c3ccccc13)C(=O)N(c1ccc(CC3(NC(=O)NS(=O)(=O)c4c(Cl)cccc4Cl)CC3)cc1C)C2
